From patent US9278958B2, “Anti-cancer compounds” (KATHOLIEKE UNIVERSITEIT LEUVEN, priority 2012, dated 2016)
Read-outs that look alike come from different tables or passages of the source.

Assays:
[1] = tested on: Sup T1 cells; experiment: Cytostatic assay, Sup T1; format: cell-based; conditions: Homo sapiens, Table 2, read-out: Cytostatic activity (μM) Sup T 1
Procedure, shortened: (§1)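 Test compound was added to wells holding 5-7.5×10^4 cells. After line-specific growth periods of 48 h to 96 h at 37° C in a moist atmosphere with regulated CO2, the number of cells was recorded by Coulter counting.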

[2] = tested on: HUT-78 cells; experiment: Cytostatic assay, HUT-78; format: cell-based; conditions: Homo sapiens, HuT78; Table 2
Procedure, shortened: as §1

[3] = tested on: U87 CD4+/CXCR4+/CCR5+ glioma cells; experiment: Cytostatic assay, U87 CD4+/CXCR4+/CCR5+; format: cell-based; conditions: Homo sapiens, Glioma cell; Table 3
Protocol: (§2) To each well of a 96-well microtiter plate were added 5-7.5×10^4 cells and a given amount of the test compound. The cells were allowed to proliferate for 48 h to 96 h (depending on the nature of the cell line) at 37° C. in a humidified CO2-controlled atmosphere. At the end of the incubation period, the cells were counted in a Coulter Counter (Coulter Electronics Ltd, Harpenden Herts, United Kingdom).

[4] = tested on: U937, human monocytic cells; experiment: Cytostatic assay, U937; format: cell-based; conditions: U-937, Table 2
Procedure, shortened: as §1

[5] = tested on: L1210 cells; experiment: Cytostatic assay, L1210; format: cell-based; conditions: Mus musculus, Table 2
Procedure, shortened: as §1

[6] = tested on: OST TK- osteosarcoma cells; experiment: Cytostatic assay, OST TK-; format: cell-based; conditions: Homo sapiens; Table 3
Procedure, shortened: as §1

[7] = tested on: PC3 (rega) prostate cancer cells; experiment: Cytostatic assay, PC3 (rega); format: cell-based; conditions: Table 4
Procedure, shortened: as §1

[8] = tested on: Caki-2 kidney carcinoma cells; experiment: Cytostatic assay, Caki-2; format: cell-based; conditions: Homo sapiens, Table 3
Procedure, shortened: as §1

[9] = tested on: 22Rv1 (UZ) prostate cancer cells; experiment: Cytostatic assay, 22Rv1 (UZ); format: cell-based; conditions: Homo sapiens, Table 4
Procedure, shortened: as §1

[10] = tested on: broad variety of tumor cell lines; experiment: Cytostatic assays, summary over the panel of cell lines (Tables 2-4); format: cell-based
Procedure, shortened: as §1

[11] = tested on: protein synthesis in CEM cells; experiment: Antimetabolic activity assay, [4,5-3H]leucine incorporation (protein synthesis), CEM; format: cell-based; conditions: Homo sapiens, CCRF-CEM, incorporation into TCA-insoluble material
Procedure, shortened: (§3)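 37° C, 20 hrs, humidified CO2: 10^5 CEM cells + 1 μCi ^3H precursor + compound (5-fold dilution series). Harvest on glass fiber filters; count acid-insoluble ^3H.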

[12] = tested on: protein synthesis in Raji cells; experiment: Antimetabolic activity assay, [4,5-3H]leucine incorporation (protein synthesis), Raji; format: cell-based; conditions: Homo sapiens, incorporation into TCA-insoluble material
[13] = tested on: Huh-7 hepatoma cells; experiment: Cytostatic assay, Huh-7; format: cell-based; conditions: Homo sapiens, Table 4
Procedure, shortened: as §1

[14] = tested on: DNA synthesis in Raji cells; experiment: Antimetabolic activity assay, [CH3-3H]dThd incorporation (DNA synthesis), Raji; format: cell-based; conditions: Homo sapiens, incorporation into TCA-insoluble material
[15] = tested on: FM3A mammary carcinoma cells; experiment: Cytostatic assay, FM3A; format: cell-based, murine; conditions: Mus musculus, Table 3
Procedure, shortened: as §1

[16] = tested on: MT-2 cells; experiment: Cytostatic assay, MT-2; format: cell-based; conditions: Homo sapiens, MT2; Table 2
Procedure, shortened: as §1

[17] = tested on: Raji, human B-lymphoma cells; experiment: Cytostatic assay, Raji; format: cell-based; conditions: Table 2
Procedure, shortened: as §1

[18] = tested on: BAEC aortic endothelial cells; experiment: Cytostatic assay, BAEC; format: cell-based, bovine; conditions: Bos taurus, Table 3
Procedure, shortened: as §1

[19] = tested on: PNT1A (UZ) prostate cells; experiment: Cytostatic assay, PNT1A (UZ); format: cell-based; conditions: Homo sapiens, Table 4
Procedure, shortened: as §1

[20] = tested on: LNCaP (UZ) prostate cancer cells; experiment: Cytostatic assay, LNCaP (UZ); format: cell-based; conditions: Homo sapiens, Table 4
Procedure, shortened: as §1

[21] = tested on: RNA synthesis in CEM cells; experiment: Antimetabolic activity assay, [5-3H]uridine incorporation (RNA synthesis), CEM; format: cell-based; conditions: Homo sapiens, CCRF-CEM, incorporation into TCA-insoluble material
Procedure, shortened: as §3

[22] = tested on: HT29 colorectal carcinoma cells; experiment: Cytostatic assay, HT29; format: cell-based; conditions: Homo sapiens, HT-29; Table 3
Procedure, shortened: as §1

[23] = tested on: Molt4/C8 cells; experiment: Cytostatic assay, Molt4/C8; format: cell-based; conditions: Table 2
Procedure, shortened: as §1

[24] = tested on: MT-4 cells; experiment: Cytostatic assay, MT-4; format: cell-based; conditions: Homo sapiens, MT4; Table 2
Procedure, shortened: as §1

[25] = tested on: PLC/PRF/5 hepatoma cells; experiment: Cytostatic assay, PLC/PRF/5; format: cell-based; conditions: Homo sapiens, Table 4
Procedure, shortened: as §1

[26] = tested on: U87 glioma cells; experiment: Cytostatic assay, U87; format: cell-based; conditions: Homo sapiens, U-87 MG; Table 3
Procedure, shortened: as §1

[27] = tested on: 293T embryonic kidney cells; experiment: Cytostatic assay, 293T; format: cell-based; conditions: Homo sapiens, HEK-293T; Table 3
Procedure, shortened: as §1

[28] = tested on: RNA synthesis in Raji cells; experiment: Antimetabolic activity assay, [5-3H]uridine incorporation (RNA synthesis), Raji; format: cell-based; conditions: Homo sapiens, incorporation into TCA-insoluble material
[29] = tested on: HEL embryonic lung fibroblast cells; experiment: Cytostatic assay, HEL; format: cell-based; conditions: Homo sapiens, Table 3
Procedure, shortened: as §1

[30] = tested on: Daudi, human B-lymphoma cells; experiment: Cytostatic assay, Daudi; format: cell-based; conditions: Table 2
Protocol: as §2

[31] = tested on: HL60, human leukemia cells; experiment: Cytostatic assay, HL-60; format: cell-based; conditions: Table 2
Procedure, shortened: as §1

[32] = tested on: THP-1, human monocytic cells; experiment: Cytostatic assay, THP-1; format: cell-based; conditions: Table 2
Procedure, shortened: as §1

[33] = tested on: HepG2C3A hepatoma cells; experiment: Cytostatic assay, HepG2C3A; format: cell-based; conditions: Homo sapiens, HepG2/C3A; Table 4
Procedure, shortened: as §1

[34] = tested on: HeLa cervix carcinoma cells; experiment: Cytostatic assay, HeLa; format: cell-based, human; conditions: Homo sapiens; Table 3; read-out: Cytostatic activity (μM) Hela
Procedure, shortened: as §1

[35] = tested on: Caki-1 kidney carcinoma cells; experiment: Cytostatic assay, Caki-1; format: cell-based; conditions: Homo sapiens, Table 3
Procedure, shortened: as §1

[36] = tested on: DNA synthesis in CEM cells; experiment: Antimetabolic activity assay, [CH3-3H]dThd incorporation (DNA synthesis), CEM; format: cell-based; conditions: Homo sapiens, CCRF-CEM, incorporation into TCA-insoluble material
Procedure, shortened: as §3

[37] = tested on: PC-3 (UZ) prostate cancer cells; experiment: Cytostatic assay, PC-3 (UZ); format: cell-based; conditions: Table 4
Procedure, shortened: as §1

[38] = tested on: DU145 (UZ) prostate cancer cells; experiment: Cytostatic assay, DU145 (UZ); format: cell-based; conditions: Homo sapiens, DU-145; Table 4
Procedure, shortened: as §1

[39] = tested on: HOS CD4+ osteosarcoma cells; experiment: Cytostatic assay, HOS CD4+; format: cell-based; conditions: Homo sapiens; Table 3
Protocol: as §2

[40] = tested on: MCF-7 mammary carcinoma cells; experiment: Cytostatic assay, MCF-7; format: cell-based; conditions: Homo sapiens, MCF7; Table 3
Procedure, shortened: as §1

[41] = tested on: BPH-1 (UZ); experiment: Cytostatic assay, BPH-1 (UZ); format: cell-based; conditions: Homo sapiens, Table 4
Procedure, shortened: as §1

[42] = tested on: CEM cells; experiment: Cytostatic assay, CEM; format: cell-based; conditions: Homo sapiens, CCRF-CEM
Procedure, shortened: as §1

[43] = tested on: C8166 cells; experiment: Cytostatic assay, C8166; format: cell-based; conditions: Homo sapiens, Table 2
Procedure, shortened: as §1

Structure (SMILES): COC(=O)c1cc(CCc2ccsc2)sc1N [TR595, 2-Amino-5-(2-thiophen-3-yl-ethyl)-thiophene-3-carboxylic acid methyl ester]
- IC50 [1]: 1.3 ± 0.21 µM
- IC50 [2]: 38 ± 8.5 µM
- IC50 [3]: 51 ± 4.9 µM
- IC50 [4]: 42 ± 3.5 µM
- IC50 [5]: 41 ± 2 µM
- IC50 [6]: 8.2 ± 6.9 µM
- IC50 [7]: 0.25 ± 0.27 µM
- IC50 [8]: 45 ± 7.1 µM
- IC50 [9]: 22 ± 9.2 µM
- IC50 ([10]; Homo sapiens, HuT78, range for the seven compounds, MT-4 and HUT-78 cells, read-out: IC50 range, cytostatic activity against MT-4 and HUT-78 cells): 8.5 to 60 µM
- IC50 ([10]; range for the seven compounds against the 5 tumor cell lines, read-out: IC50 range, cytostatic activity against CEM, Molt4/C8, Sup T1, MT-2 and C8166 cells): 0.22 to 3.4 µM
- IC50 [11]: 0.66 ± 0.13 µM
- IC50 [12]: 43 ± 7 µM
- IC50 [13]: 1.3 ± 0.28 µM
- IC50 [14]: 39 ± 33 µM
- IC50 [15]: 50 ± 2.8 µM
- IC50 [16]: 0.57 ± 0.078 µM
- IC50 [17]: 46 ± 1.4 µM
- IC50 [18]: 27 ± 7.1 µM
- IC50 [19]: 40 ± 7.1 µM
- IC50 [20]: 0.38 ± 0.1 µM
- IC50 [21]: 1.9 ± 0.7 µM
- IC50 [22]: 30 ± 5.7 µM
- IC50 [23]: 0.56 ± 0.57 µM
- IC50 [24]: 30 ± 4.9 µM
- IC50 [25]: 28 ± 2.8 µM
- IC50 [26]: 51 ± 2.1 µM
- IC50 [27]: 44 ± 5.7 µM
- IC50 [28]: 27 ± 14 µM
- IC50 [29]: 30 ± 13 µM
- IC50 [30]: 37 ± 3.5 µM
- IC50 [31]: 6.1 ± 8.6 µM
- IC50 [32]: 41 ± 2.8 µM
- IC50 [33]: 8.1 ± 0.71 µM
- IC50 [34]: 36 ± 7 µM
- IC50 [35]: 2.3 ± 0.14 µM
- IC50 [36]: 3.2 ± 1.2 µM
- IC50 [37]: 0.6 ± 0.071 µM
- IC50 [38]: 15 ± 8.5 µM
- IC50 [39]: 50 ± 12 µM
- IC50 [40]: 25 ± 11 µM
- IC50 [41]: 46 ± 4.9 µM
- IC50 ([42]; Table 1a, read-out: IC50 μM (CEM)): 1.7 µM
- IC50 ([42]; Table 2, read-out: Cytostatic activity (μM) CEM): 1.7 ± 1.1 µM
- IC50 [43]: 2.2 ± 0.35 µM
